Patent US5190741A, “Agents for diagnosing and treating melanomas, aromatic halogenated derivatives usable as such agents and their preparation” (Institut National de la Sante et de la Recherche Medicale …, priority 1989, dated 1993)
Where two headings read alike, the source gives them in different places.

Tests used:
[1] = LD50 determination, i.v. (Karber and Behrens); settings: mouse, in vivo, iv
From the text: (§1) The determination of the LD50 is made in the mouse after i.v. injection of the molecules according to the methodology described by Karber and Behrens.
(§2) 6 weeks old male nu/nu SSCUP nude mice, […]

[2] = test system: 6 weeks old male nu/nu SSCUP nude mice; test: LD50 determination, i.v. (Karber and Behrens); settings: mouse, in vivo, iv
From the text: as §1, §2

[3] = LD50 determination, i.v. (Karber and Behrens); settings: mouse, in vivo, iv; remark: listed apart in the source
From the text: as §1
(§3) male nu/nu SSCUP nude mice bearing heterotransplants of human melanomas.

[4] = test system: male nu/nu SSCUP nude mice bearing heterotransplants (Beu melanoma); test: LD50 determination, i.v. (Karber and Behrens); settings: mouse, in vivo, iv
From the text: as §1, §3

[5] = Tissue distribution in Swiss nu/nu SSCUP mice bearing Dau; format: in vivo, human; settings: mouse, iv, 3 umol/animal
Experimental: The study of the tissue distribution of the ^125 I labelled compounds was performed in mice bearing grafted melanomas (cf. autoradiograms above). […] The animals are sacrificed at different time intervals of 1 to 24 hours after the injection. The blood is collected and the principal organs are excised. Aliquots are weighed and the radioactivity of the samples is measured in a […] 1191 counter (analytic tracer). The counting yield for iodine 125 is 60%. The results are expressed: as a percentage of the injected dose bound per g of tissue (% ID/g); in the form of the ratios [formula] This ratio reflects more precisely the selectivity of a molecule for an organ (tables 2, 4, 6, 8, 10 and 12).

[6] = test system: A 431 (tumor of the vulva); test: Scintillation imaging (specificity), nu/nu SSCUP nude mice; format: in vivo; settings: after injection of A
From the text: (§4) The mice bearing grafted tumors are anesthetized by the i.p. injection of sodium pentobarbital 1/5 and immobilized under a scintillation camera (Gammatome II, CGR) equipped with a pinhole 3-360 collimator, sensitivity 3.2 10^-4.

[7] = test system: SW 948 (adenocarcinoma of the colon); test: as above; format: in vivo; settings: after injection of A
From the text: as §4

[8] = intestine, read-out: intestine % ID/g
[9] = kidney, read-out: kidney % ID/g
[10] = muscle, read-out: muscle % ID/g
[11] = pancreas, read-out: pancreas % ID/g
[12] = plasma, read-out: plasma % ID/g
[13] = spleen, read-out: spleen % ID/g
[14] = stomach, read-out: stomach % ID/g
[15] = submaxillary glands, read-out: submaxillary glands % ID/g

SMILES: CCN(CC)CCNC(=O)c1ccc(I)cc1 [Derivative A, N-(2-diethylaminoethyl) 4-iodo benzamide]
- LD50 [1]: 90 mg/kg
- LD 0 [2]: 60 mg/kg
- LD 100 [2]: 150 mg/kg
- LD50 [3]: 90 mg/kg
- LD 0 [4]: 60 mg/kg
- LD 100 [4]: 150 mg/kg
- tissue uptake at 1 h ([5]; blood, read-out: blood % ID/g): 0.89 %ID/g
- tissue uptake at 2 h ([5]; blood, read-out: blood % ID/g): 0.52 %ID/g
- tissue uptake at 4 h ([5]; blood, read-out: blood % ID/g): 0.29 %ID/g
- tissue uptake at 6 h ([5]; blood, read-out: blood % ID/g): 0.23 %ID/g
- tissue uptake at 24 h ([5]; blood, read-out: blood % ID/g): 0.008 %ID/g
- tissue uptake at 8 h ([5]; blood, read-out: blood % ID/g): 0.14 %ID/g
- tissue uptake at 12 h ([5]; blood, read-out: blood % ID/g): 0.06 %ID/g
- tissue uptake at 1 h ([5]; brain, read-out: brain % ID/g): 1.4 %ID/g
- tissue uptake at 2 h ([5]; brain, read-out: brain % ID/g): 0.99 %ID/g
- tissue uptake at 4 h ([5]; brain, read-out: brain % ID/g): 0.51 %ID/g
- tissue uptake at 6 h ([5]; brain, read-out: brain % ID/g): 0.2 %ID/g
- tissue uptake at 24 h ([5]; brain, read-out: brain % ID/g): 0.002 %ID/g
- tissue uptake at 8 h ([5]; brain, read-out: brain % ID/g): 0.12 %ID/g
- tissue uptake at 12 h ([5]; brain, read-out: brain % ID/g): 0.02 %ID/g
- tissue uptake at 1 h ([5]; eye, read-out: eye % ID/g): 0.68 %ID/g
- tissue uptake at 2 h ([5]; eye, read-out: eye % ID/g): 0.54 %ID/g
- tissue uptake at 4 h ([5]; eye, read-out: eye % ID/g): 0.31 %ID/g
- tissue uptake at 6 h ([5]; eye, read-out: eye % ID/g): 0.16 %ID/g
- tissue uptake at 24 h ([5]; eye, read-out: eye % ID/g): 0.02 %ID/g
- tissue uptake at 8 h ([5]; eye, read-out: eye % ID/g): 0.1 %ID/g
- tissue uptake at 12 h ([5]; eye, read-out: eye % ID/g): 0.04 %ID/g
- tissue uptake at 1 h [5, 8]: 3.74 %ID/g
- tissue uptake at 2 h [5, 8]: 2.67 %ID/g
- tissue uptake at 4 h [5, 8]: 1.1 %ID/g
- tissue uptake at 6 h [5, 8]: 0.42 %ID/g
- tissue uptake at 8 h [5, 8]: 0.38 %ID/g
- tissue uptake at 12 h [5, 8]: 0.27 %ID/g
- tissue uptake at 24 h [5, 8]: 0.01 %ID/g
- tissue uptake at 1 h [5, 9]: 8.39 %ID/g
- tissue uptake at 2 h [5, 9]: 5.12 %ID/g
- tissue uptake at 4 h [5, 9]: 2.15 %ID/g
- tissue uptake at 6 h [5, 9]: 0.78 %ID/g
- tissue uptake at 24 h [5, 9]: 0.03 %ID/g
- tissue uptake at 8 h [5, 9]: 0.32 %ID/g
- tissue uptake at 12 h [5, 9]: 0.14 %ID/g
- tissue uptake at 1 h ([5]; liver, read-out: liver % ID/g): 5.68 %ID/g
- tissue uptake at 2 h ([5]; liver, read-out: liver % ID/g): 3.35 %ID/g
- tissue uptake at 4 h ([5]; liver, read-out: liver % ID/g): 2.1 %ID/g
- tissue uptake at 6 h ([5]; liver, read-out: liver % ID/g): 1.1 %ID/g
- tissue uptake at 24 h ([5]; liver, read-out: liver % ID/g): 0.1 %ID/g
- tissue uptake at 8 h ([5]; liver, read-out: liver % ID/g): 0.71 %ID/g
- tissue uptake at 12 h ([5]; liver, read-out: liver % ID/g): 0.3 %ID/g
- tissue uptake at 1 h ([5]; lungs, read-out: lungs % ID/g): 6.88 %ID/g
- tissue uptake at 2 h ([5]; lungs, read-out: lungs % ID/g): 5.63 %ID/g
- tissue uptake at 4 h ([5]; lungs, read-out: lungs % ID/g): 2.84 %ID/g
- tissue uptake at 6 h ([5]; lungs, read-out: lungs % ID/g): 0.76 %ID/g
- tissue uptake at 8 h ([5]; lungs, read-out: lungs % ID/g): 0.45 %ID/g
- tissue uptake at 12 h ([5]; lungs, read-out: lungs % ID/g): 0.11 %ID/g
- tissue uptake at 24 h ([5]; lungs, read-out: lungs % ID/g): 0.02 %ID/g
- tissue uptake at 1 h [5, 10]: 1.28 %ID/g
- tissue uptake at 2 h [5, 10]: 0.79 %ID/g
- tissue uptake at 4 h [5, 10]: 0.32 %ID/g
- tissue uptake at 6 h [5, 10]: 0.11 %ID/g
- tissue uptake at 24 h [5, 10]: 0.006 %ID/g
- tissue uptake at 8 h [5, 10]: 0.07 %ID/g
- tissue uptake at 12 h [5, 10]: 0.02 %ID/g
- tissue uptake at 1 h [5, 11]: 4.06 %ID/g
- tissue uptake at 2 h [5, 11]: 2.29 %ID/g
- tissue uptake at 4 h [5, 11]: 0.97 %ID/g
- tissue uptake at 6 h [5, 11]: 0.41 %ID/g
- tissue uptake at 8 h [5, 11]: 0.24 %ID/g
- tissue uptake at 12 h [5, 11]: 0.13 %ID/g
- tissue uptake at 24 h [5, 11]: 0.03 %ID/g
- tissue uptake at 1 h [5, 12]: 0.55 %ID/g
- tissue uptake at 2 h [5, 12]: 0.33 %ID/g
- tissue uptake at 4 h [5, 12]: 0.24 %ID/g
- tissue uptake at 6 h [5, 12]: 0.24 %ID/g
- tissue uptake at 24 h [5, 12]: 0.007 %ID/g
- tissue uptake at 8 h [5, 12]: 0.15 %ID/g
- tissue uptake at 12 h [5, 12]: 0.06 %ID/g
- tissue uptake at 1 h [5, 13]: 3.48 %ID/g
- tissue uptake at 2 h [5, 13]: 1.95 %ID/g
- tissue uptake at 4 h [5, 13]: 0.8 %ID/g
- tissue uptake at 6 h [5, 13]: 0.3 %ID/g
- tissue uptake at 8 h [5, 13]: 0.16 %ID/g
- tissue uptake at 12 h [5, 13]: 0.07 %ID/g
- tissue uptake at 24 h [5, 13]: 0.02 %ID/g
- tissue uptake at 1 h [5, 14]: 2.32 %ID/g
- tissue uptake at 2 h [5, 14]: 1.85 %ID/g
- tissue uptake at 4 h [5, 14]: 1.36 %ID/g
- tissue uptake at 6 h [5, 14]: 1.17 %ID/g
- tissue uptake at 8 h [5, 14]: 0.71 %ID/g
- tissue uptake at 12 h [5, 14]: 0.38 %ID/g
- tissue uptake at 24 h [5, 14]: 0.03 %ID/g
- tissue uptake at 1 h [5, 15]: 4.75 %ID/g
- tissue uptake at 2 h [5, 15]: 3.56 %ID/g
- tissue uptake at 4 h [5, 15]: 1.5 %ID/g
- tissue uptake at 6 h [5, 15]: 0.86 %ID/g
- tissue uptake at 8 h [5, 15]: 0.77 %ID/g
- tissue uptake at 12 h [5, 15]: 0.3 %ID/g
- tissue uptake at 24 h [5, 15]: 0.02 %ID/g
- tissue uptake at 1 h ([5]; tumor, read-out: tumor % ID/g): 1.51 %ID/g
- tissue uptake at 2 h ([5]; tumor, read-out: tumor % ID/g): 1.29 %ID/g
- tissue uptake at 4 h ([5]; tumor, read-out: tumor % ID/g): 0.45 %ID/g
- tissue uptake at 6 h ([5]; tumor, read-out: tumor % ID/g): 0.23 %ID/g
- tissue uptake at 24 h ([5]; tumor, read-out: tumor % ID/g): 0.009 %ID/g
- tissue uptake at 8 h ([5]; tumor, read-out: tumor % ID/g): 0.11 %ID/g
- tissue uptake at 12 h ([5]; tumor, read-out: tumor % ID/g): 0.07 %ID/g
- tissue uptake ([5]; tumor, only during the 2 hours following injection, Dau, read-out: intratumoral concentration): > 1 %ID/g
- tumor image [6]: not obtained any image
- tumor image [7]: not obtained any image
